This is an account of results in article PMC8040252, “1,2,4-Oxadiazole-Bearing Pyrazoles as Metabolically Stable Modulators of Store-Operated Calcium Entry” (ACS Medicinal Chemistry Letters, 2021).

Each structure is given as a SMILES string. Marks after values point to notes of the source that are not given here.

The test system of series [1] is Store-operated calcium entry (SOCE). Kind of series: SOCE in HEK cells, tBhQ store depletion and Ca2+ re-addition, Fura-2 calcium imaging. Type of series: cell-based, human. Conditions: for percentage of SOCE activity: compared to control; for activity at 10 µM: HEK293, compound 10 μM, tBhQ 50 μM, mean ± SEM of three experiments, read-out: % SOCE residual activity (10 μM). The protocol: With this approach, 24 oxadiazole-bearing pyrazoles were synthesized and tested in human embryonic kidney (HEK) cells for SOCE inhibition. […] After 600 s, Ca^2+ was added and intracellular levels were measured in fluorescence microscopy with the calcium dye Fura-2. […] For these compounds, the cell viability was therefore evaluated. An MTT assay was performed and the compounds that affected cell viability by more than 25% at 10 μM were discarded (23, 31, and 33). […] According to both activity and cytotoxicity, for the selected five compounds, the representative traces are depicted in Figure 3.
Human embryonic kidney (Hek) cells were obtained from ATCC (Rockville, MD, USA) and were cultured in Dulbecco’s Modified Eagle’s Medium (DMEM; Sigma-Aldrich, Italy), supplemented with 10% heat-inactivated FBS (Gibco, Italy), L-glutamine […] (Sigma-Aldrich, Italy), 10 U/mL penicillin, and […] streptomycin (Sigma-Aldrich, Italy) at 37 °C, under a 5% CO2 humidified atmosphere. […]
(KRB, 135 mM NaCl, 5 mM KCl, 0.4 mM KH2PO4, 1 mM MgSO4, 5.5 mM glucose, 20mM HEPES, pH 7.4) containing 2 mM CaCl2 (30 min, room temperature). After which, cells were washed and incubated with KRB for other 30 min to allow de-esterification of […]. To measure SOCE, cells were depleted of calcium in the endoplasmic reticulum with 2,5-t-butylhydroquinone (tBhQ, 50 […]
For calcium imaging experiments, Hek cells were plated onto pre-treated poli-L-lysine (P4832, Sigma-Aldrich, Italy) glass coverslips of 24 mm in 6-well plates Cells were loaded with 5 µM of Fura-2 AM, 0.02% of Pluronic-127 (Life technologies, Italy) and 10 µM of sulfinpyrazone (Sigma-Aldrich, Italy) in KRB containing 2 mM CaCl2 for 30 min at RT. Cells were then washed once with KRB for 15 min for de-esterification of Fura-2 AM.
Coverslips were mounted into the acquisition chamber and placed on the stage of a Leica DMI6000 epifluorescent microscope equipped with S Fluor ×40/1.3 objective. Fura-2 AM was excited by alternate 340 and 380 nm using a Polychrome IV monochromator (Till Photonics, Germany), and the probe emission light was filtered through 520/20 bandpass filter and collected by a cooled CCD camera (Hamamatsu, Japan). The fluorescence signals were acquired and processed using MetaFluor software (Molecular Device, Sunnyvale, CA, USA). To quantify the differences in the amplitudes of Ca2+ transients, the ratio values were normalized using the formula ΔF/F0. […]
In calcium imaging experiments, data are presented as Mean +/- standard error (SEM) or Median and interquartile range (IQR). The normality of data distributions was assessed using the Shapiro−Wilk test. Nonparametric (Mann−Whitney U test and one-way) statistical analysis was used for comparisons of data. All statistical assessments were two-sided and a value of P <0.05 was considered statistically significant. Statistical analyses were performed using GraphPad Prism software (GraphPad Software, Inc., USA).

For series [2], the system named is calcium entry in resting cells. The experiment in a line: Intracellular Ca2+ in resting cells in the presence of extracellular Ca2+. Type of series: cell-based, human. Conditions: 10 μM, extracellular Ca2+ present, 300 s of observation, compared to control. The protocol:
We also investigated whether 37 required the triggered opening of the Orai channel to elicit its effect. […] The same effect was also evident at 3 (118.2%) and 1 μM (116.7%) but was not detected at concentrations above 10. In particular, at 30 and 100 μM, 37 acts as weak SOCE inhibitor, with a percentage of residual activity of about 70%.

The nature of series [3]: In vitro hepatic metabolic stability in MLS9 fraction with NADPH. Type of series: in vitro ADME, mouse. Conditions: after 1 h of incubation. The procedure:
The five selected inhibitors (22, 27, 29, 32, and 42) and the identified SOCE enhancer (37) were then evaluated for their in vitro hepatic metabolic stability. To this aim, the candidates were incubated in MLS9 fraction supplied with NADPH and the residual substrate was measured after 1 h. Under these conditions, the oxadiazole-bearing pyrazoles resulted overall metabolically stable, with only two compounds affording a residual substrate lower than 80% and the remaining molecules higher than 90% after incubation (Table 1 and Supporting Information). In contrast, Pyr3 and CIC-37, which suffered from hydrolysis of the ester function, provided a residual substrate of 43 and 74%, respectively (Table 1).[35] Similarly, the residual substrate of Synta66 in MLM is of 15%, due to an important hydrolysis of the amide group, absent in our class (Table 1).[39]
In vitro metabolism and purity of lead compounds
In vitro metabolism studies
Mouse liver S9 (MLS9) (pooled male mouse CD-1, protein concentration: 20 mg/mL) were purchased from Corning B.V. Life Sciences (Amsterdam, The Netherlands) and used throughout this study. The standard incubation mixture (250 μL final volume) was carried out in a 50 mM TRIS (tris[hydroxymethyl]-aminomethane) + 150 mM KCl buffer (pH 7.4) containing 3.3 mM MgCl2, 1.3 mM β-NADP-Na 2, 3.3 mM glucose 6-phosphate, 0.4 Units/mL glucose 6-phosphate dehydrogenase (NADPH regenerating system), 5 μL of acetonitrile ([…]), and the substrate compounds at a concentration of 50 µM. After pre-equilibration of the mixture, an appropriate volume of MLS9 suspension was added to give a final protein concentration of 1.5 mg/mL. The mixture was shaken for 60 min at 37 °C. Each incubation was stopped by addition of 250 μL of ice-cold acetonitrile, vortexed, and centrifuged at 13000 rpm for 10 min. Control incubations were carried out without the presence of MLS9 suspension or cofactors or in absence of the substrate.
LC-UV method for purity and metabolic stability data determination: a Shimadzu HPLC system (Shimadzu, Kyoto, Japan), consisting of two LC-10AD Vp module pumps, an SLC-10A Vp system controller, an SIL-10AD Vp autosampler, and a DGU-14-A on-line degasser were used for the analysis. The SPD-M10Avp photodiode array detector was used to detect the analytes. LC-Solution 1.24 software was used to process the chromatograms.
• Column: Phenomenex Kinetex XB C18, 150 × 4.6 mm (5 µm d.p.) protected with a SecurityGuard® (Torrance, CA, USA).
A: 0.2% formic acid in water;
B: 0.2% formic acid in acetonitrile.

Series [4] is described as follows: MTT cell viability assay in HEK cells. It counts as cell-based, human. Conditions: human, mean ± SEM. The procedure: (§1) With this approach, 24 oxadiazole-bearing pyrazoles were synthesized and tested in human embryonic kidney (HEK) cells for SOCE inhibition. To this aim, intracellular Ca^2+ stores of HEK cells were emptied with t-butylhydroquinone (tBhQ, 50 μM) in the presence of the compounds at 10 μM concentration. After 600 s, Ca^2+ was added and intracellular levels were measured in fluorescence microscopy with the calcium dye Fura-2. […] For these compounds, the cell viability was therefore evaluated. An MTT assay was performed and the compounds that affected cell viability by more than 25% at 10 μM were discarded (23, 31, and 33). […] According to both activity and cytotoxicity, for the selected five compounds, the representative traces are depicted in Figure 3. […]
(§2) 3-(4,5-Dimethylthiazol-2-yl)-2,5-diphenyltetrazolium bromide (MTT) assay Hek cells were plated in 24-wells plate at 20.000 cells per well. After 24 h, cells were treated for other 24 h with the selected compounds. At the end of treatments, medium was removed and substituted by 300 µL of MTT reagent at the final concentration of 0.25 mg/mL for 60 min at 37 °C. Reactions were then stopped and the crystals were solubilized by adding isopropyl alcohol/HCl (1:1; vol:vol) (Sigma-Aldrich Inc., Italy), before reading the absorbance at 570 nm, using the multi-plate reader Victor 3V (PerkinElmer, Milan, Italy). […]
(§3) All statistical assessments were two-sided and a value of P <0.05 was considered statistically significant. Statistical analyses were performed using GraphPad Prism software (GraphPad Software, Inc., USA).

Another series relates to HEK cells. The experiment in a line: MTT cell viability assay in HEK cells. It counts as cell-based, human. Particulars: 10 μM. The procedure: as §1, §2, §3

Consider `CCCCCC(=O)Nc1ccc(-n2ncc(-c3nc(C)no3)c2C(F)(F)F)cc1` [compound 37], for which the “percentage of SOCE activity” value in series [1] (1 μM) is recorded as 116.7%. The “percentage of SOCE activity” value in series [1] (3 μM) was 118.2%. Further, in series [1] (10 μM, vs control), the “area under the curve (AUC) of calcium entry” value is recorded as “significantly increased”, the “peak amplitude of calcium entry” value is “significantly increased” and the “slope of the Ca2+-rise” value is reported as “without affecting”. The activity at 30 µM in series [1] (Homo sapiens, HEK293, 30 μM, read-out: percentage of residual activity (SOCE)) is around 70%. The activity at 100 µM in series [1] (Homo sapiens, HEK293, 100 μM, read-out: percentage of residual activity (SOCE)) is around 70%. The activity at 10 µM in series [1] (Homo sapiens, vs control) is 146 ± 4.5%. The “calcium entry in resting cells” value in series [2] is recorded as “did not elicit any significant calcium entry”. The “MLS9 stability (residual substrate)” value in series [3] came to 91% ^b.

Consider `Cc1ccc(S(=O)(=O)Nc2ccc(-n3ncc(-c4nc(C)no4)c3C(F)(F)F)cc2)cc1` [compound 42], for which the melting point lay within 149 to 150 °C. In addition, in series [1] (Homo sapiens, vs control), the activity at 10 µM amounted to 47.6 ± 4.2%. Besides, the IC50 in series [1] (Homo sapiens, HEK293, mean ± SEM) is 9.5 ± 1.7 µM. This compound displayed a viability at 24 h, 10 µM in series [4] of 79.4 ± 4.2%. Moreover, in the series with HEK cells, the cytotoxicity result was “not cytotoxic”. The “MLS9 stability (residual substrate)” value in series [3] turned out to be 76% ^b.
